We go through one substance from US20240306646A1, “BROAD SPECTRUM PATHOGEN CONTROL IN PLANTS” (APHEA. BIO NV, priority 2021, published 2024).

Format in all cases: cell-based
Assay [1] has as its system Puccinia striiformis. Briefly: In vitro antifungal screening of strain extracts and fractions.
For assay [2], the system named is Zymoseptoria tritici.
Assay [3] deals with Fusarium graminearum. Particulars: in vitro.

Consider Takanawaene C, for which the “growth inhibition, Puccinia striiformis” value in assay [1] is given as 100% inhibition. Moreover, the “growth inhibition, Zymospetoria tritici” value in assay [2] is reported as 9% growth. Further, the “growth inhibition, Fusarium graminearum” value in assay [3] came to 100% growth.
